{"source": "paper PMC11079024", "about": "“Identification of a family of species-selective complex I inhibitors as potential anthelmintics” (Nature Communications, 2024)", "key": {"[1]": {"test_system": "L1 wild-type C. elegans", "settings": "for Screen \"Hit\" / Relative Motility: 50 μM; for Relative Motility: relative to DMSO controls, single biological replicate"}, "[2]": {"target": "C. elegans complex II (succinate dehydrogenase) (Caenorhabditis elegans, UniProt O62215+P41956+Q09545)", "sequence (P41956 30-182)": "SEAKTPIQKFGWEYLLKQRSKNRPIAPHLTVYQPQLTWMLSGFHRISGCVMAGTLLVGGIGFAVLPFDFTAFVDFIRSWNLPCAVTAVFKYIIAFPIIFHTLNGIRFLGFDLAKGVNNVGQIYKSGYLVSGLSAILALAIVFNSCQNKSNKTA", "sequence (Q09545 22-298)": "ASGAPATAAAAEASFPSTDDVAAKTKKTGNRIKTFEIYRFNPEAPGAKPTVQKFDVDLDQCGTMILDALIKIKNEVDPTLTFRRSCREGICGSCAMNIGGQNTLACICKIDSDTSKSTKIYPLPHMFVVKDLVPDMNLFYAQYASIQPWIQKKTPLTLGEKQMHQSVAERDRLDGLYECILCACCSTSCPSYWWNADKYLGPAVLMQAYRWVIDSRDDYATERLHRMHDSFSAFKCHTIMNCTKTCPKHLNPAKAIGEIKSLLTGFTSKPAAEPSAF", "sequence (Q09508 32-646, further chain)": "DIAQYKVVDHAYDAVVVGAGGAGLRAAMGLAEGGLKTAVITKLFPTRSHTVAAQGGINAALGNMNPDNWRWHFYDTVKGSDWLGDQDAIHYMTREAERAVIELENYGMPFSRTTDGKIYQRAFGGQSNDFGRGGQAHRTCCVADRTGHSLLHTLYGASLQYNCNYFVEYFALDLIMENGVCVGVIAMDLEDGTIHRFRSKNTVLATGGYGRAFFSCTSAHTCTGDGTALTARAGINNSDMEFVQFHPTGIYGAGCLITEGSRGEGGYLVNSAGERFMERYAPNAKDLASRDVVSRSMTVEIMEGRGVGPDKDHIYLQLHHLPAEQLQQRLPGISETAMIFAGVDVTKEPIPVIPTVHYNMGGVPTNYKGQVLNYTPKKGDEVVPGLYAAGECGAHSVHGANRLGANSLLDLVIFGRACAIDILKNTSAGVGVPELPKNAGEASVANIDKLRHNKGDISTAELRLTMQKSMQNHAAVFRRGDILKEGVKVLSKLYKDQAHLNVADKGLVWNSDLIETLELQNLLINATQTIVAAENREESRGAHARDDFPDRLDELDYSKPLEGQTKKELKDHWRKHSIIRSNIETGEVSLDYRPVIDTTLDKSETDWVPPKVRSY", "sequence (O62215 31-145)": "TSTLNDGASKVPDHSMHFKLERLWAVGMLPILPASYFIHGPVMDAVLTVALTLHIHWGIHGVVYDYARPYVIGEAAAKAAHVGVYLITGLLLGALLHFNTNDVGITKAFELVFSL", "assay": "In vitro complex II activity assay, C. elegans mitochondria", "type": "biochemical", "settings": "single replicate", "description": "Mitochondria were isolated from the following free-living nematode strains: C. elegans—N2, CB3474, ECA882, ECA917, ECA1075, ECA1080; C. briggsae—AF16; P. pacificus—PS312; and P. hermaphrodita—B178. With the exception of the P. hermaphrodita strain B178, adult worms of each strain were grown in bulk through liquid culture to obtain mitochondria in sufficient quantities. Due to poor growth in liquid media, mixed stage populations of P. hermaphrodita were washed off and collected from NGM plates seeded with OP50. The isolation of mitochondria from all free-living nematode strains followed the protocol previously outlined in Burns et al.[24]. In brief, a 1 L saturated culture of E. coli HB101 was concentrated 20-fold in 50 mL complete S-medium. ~500,000 L1 worms synchronized from an embryo preparation performed the day prior were added to the S-media/HB101 suspension and grown to adulthood over the course of 3.5 days at 20 °C with shaking at 165 rpm. Following growth, worms were collected in 10 ×15 mL conical tubes and washed 7 times in M9 buffer. Worm suspensions were then combined into a single 15 mL conical tube and diluted to a final volume of 15 mL with M9 buffer. 1 mL aliquots of worm suspension were then distributed to 15 × 1.5 mL screw-cap microcentrifuge tubes and were pelleted at 500 g for 1 min. Excess M9 was aspirated without disturbing the worm pellet. 600 μL ice-cold isolate buffer A (250 mM sucrose, 10 mM Tris (pH 7.5), 1 mM EDTA, 1 mM PMSF (freshly prepared)) and 300 μL cold glass beads were then added to each tube. Tubes were incubated on ice for 10 min, and the worms were then lysed by bead beating (6 x 30 s, with 1 min cooling intervals). Tubes containing worm lysate were centrifuged at 1,000 g for 10 min at 4 °C and the supernatant was transferred to 15 new microcentrifuge tubes on ice. The tubes were centrifuged a second time at 1,000 g for 10 min at 4 °C and the supernatant was once again transferred to 15 new microcentrifuge tubes on ice. These tubes were then centrifuged at 16,000 g for 10 min at 4 °C. The resulting mitochondrial pellet was washed twice by re-suspension in 300 μL of ice-cold isolate buffer B (250 mM sucrose, 10 mM Tris (pH 7.5), 1 mM EDTA). Following the final wash, isolation buffer was aspirated from each tube and the pellets were flash-frozen in ethanol/dry ice and stored at −80 °C until needed.\nThe enzymatic activities of individual ETC complexes (I-IV) were assessed spectrophotometrically in isolated mitochondria using a Varioskan LUX Multimode plate reader (ThermoFisher Scientific). Mitochondrial pellets previously isolated were thawed on ice and resuspended in ice-cold isolation buffer (250 mM sucrose, 10 mM Tris (pH 7.5), 1 mM EDTA). The BCA assay (Walker, 1994) was used to quantify the protein concentration of mitochondria suspensions; solutions were diluted to a concentration of 0.2 mg/mL for use in all assays. For the complex I assay, mitochondria pellets were freeze-thawed on ice three times to increase enzyme accessibility. […] 20 μL mitochondria suspension was then added/mixed with a pipette to initiate the reaction. Immediately following the addition of mitochondria, absorbance was measured (complex I and II: 600 nm; complex III and IV: 550 nm) in 30 s intervals over 15 min. Enzymatic activity was determined in each reaction by plotting absorbance versus time and calculating the slope of the curve during the initial linear phase of the reaction. […] Percent activity of each complex was calculated by dividing the enzyme-specific activity of each well by the enzyme-specific activity of the corresponding solvent controls.\nComplex II (succinate dehydrogenase) activity was assessed using the DCIP-coupled method previously described in Burns et al.[24].\nFor preliminary screens of hit compounds, compounds were screened at 100 μM; data are the average of at least three biological replicates. The complex I and II activity assays were used for additional dose-response experiments."}, "[3]": {"settings": "KCN survival assay, hit = relative motility below 0.25"}, "[4]": {"settings": "worm motility 3 hours after the removal of KCN (endpoint)"}, "[5]": {"settings": "hit = relative motility below 0.25 3 hours after removal of KCN"}, "[6]": {"settings": "worm motility 3 hours after removal of KCN"}}, "note": "“And” between values parts separate entries of the source, which are not always exact repeats. Identical values can stand only once. Like-named read-outs stand apart in the source and are kept apart here."}
{"smiles": "Cn1c(/C=C/c2ccc(Cl)cc2)nc2ccccc21", "note": "[Compound 5663561]", "values": [{"measurement": "Screen \"Hit\"", "setting": "[1]; [3]", "result": "Y (hits were identified as compounds that reduced relative motility below 0.25 (75% reduction))"}, {"measurement": "Relative Motility", "setting": "[1]; [4]", "result": 0.220}]}
{"smiles": "O=C(O)CC(=O)O", "note": "[Malonate]", "values": [{"measurement": "Absorbance DCIP [600nm], complex II", "setting": "[2]; 30 s", "result": "0.481 and 0.464 and 0.499"}, {"measurement": "Absorbance DCIP [600nm], complex II", "setting": "[2]; 60 s", "result": "0.480 and 0.464 and 0.499"}, {"measurement": "Absorbance DCIP [600nm], complex II", "setting": "[2]; 90 s", "result": "0.480 and 0.464 and 0.499"}, {"measurement": "Absorbance DCIP [600nm], complex II", "setting": "[2]; 120 s", "result": "0.480 and 0.464 and 0.499"}, {"measurement": "Absorbance DCIP [600nm], complex II", "setting": "[2]; 150 s", "result": "0.480 and 0.463 and 0.499"}, {"measurement": "Absorbance DCIP [600nm], complex II", "setting": "[2]; 180 s", "result": "0.480 and 0.463 and 0.499"}, {"measurement": "Absorbance DCIP [600nm], complex II", "setting": "[2]; 210 s", "result": "0.480 and 0.463 and 0.498"}, {"measurement": "Absorbance DCIP [600nm], complex II", "setting": "[2]; 240 s", "result": "0.480 and 0.463 and 0.498"}, {"measurement": "Absorbance DCIP [600nm], complex II", "setting": "[2]; 270 s", "result": "0.479 and 0.462 and 0.498 and 0.486"}, {"measurement": "Absorbance DCIP [600nm], complex II", "setting": "[2]; 300 s", "result": "0.479 and 0.461 and 0.498 and 0.486"}, {"measurement": "Absorbance DCIP [600nm], complex II", "setting": "[2]; 330 s", "result": "0.478 and 0.461 and 0.497 and 0.485"}, {"measurement": "Absorbance DCIP [600nm], complex II", "setting": "[2]; 360 s", "result": "0.477 and 0.460 and 0.496 and 0.484"}, {"measurement": "Absorbance DCIP [600nm], complex II", "setting": "[2]; 390 s", "result": "0.476 and 0.460 and 0.495 and 0.483"}, {"measurement": "Absorbance DCIP [600nm], complex II", "setting": "[2]; 420 s", "result": "0.476 and 0.459 and 0.494 and 0.482"}, {"measurement": "Absorbance DCIP [600nm], complex II", "setting": "[2]; 450 s", "result": "0.475 and 0.459 and 0.494 and 0.482"}, {"measurement": "Absorbance DCIP [600nm], complex II", "setting": "[2]; 480 s", "result": "0.475 and 0.458 and 0.494 and 0.481"}, {"measurement": "Absorbance DCIP [600nm], complex II", "setting": "[2]; 510 s", "result": "0.474 and 0.457 and 0.493 and 0.481"}, {"measurement": "Absorbance DCIP [600nm], complex II", "setting": "[2]; 540 s", "result": "0.473 and 0.457 and 0.492 and 0.480"}, {"measurement": "Absorbance DCIP [600nm], complex II", "setting": "[2]; 570 s", "result": "0.473 and 0.457 and 0.492"}, {"measurement": "Absorbance DCIP [600nm], complex II", "setting": "[2]; 600 s", "result": "0.472 and 0.457 and 0.491"}, {"measurement": "Absorbance DCIP [600nm], complex II", "setting": "[2]; 630 s", "result": "0.471 and 0.457 and 0.491"}, {"measurement": "Absorbance DCIP [600nm], complex II", "setting": "[2]; 660 s", "result": "0.470 and 0.456 and 0.490"}, {"measurement": "Absorbance DCIP [600nm], complex II", "setting": "[2]; 690 s", "result": "0.470 and 0.456 and 0.490"}, {"measurement": "Absorbance DCIP [600nm], complex II", "setting": "[2]; 720 s", "result": "0.470 and 0.455 and 0.489"}, {"measurement": "Absorbance DCIP [600nm], complex II", "setting": "[2]; 750 s", "result": "0.470 and 0.455 and 0.489"}, {"measurement": "Absorbance DCIP [600nm], complex II", "setting": "[2]; 780 s", "result": "0.469 and 0.454 and 0.489"}, {"measurement": "Absorbance DCIP [600nm], complex II", "setting": "[2]; 810 s", "result": "0.469 and 0.454 and 0.489"}, {"measurement": "Absorbance DCIP [600nm], complex II", "setting": "[2]; 840 s", "result": "0.470 and 0.453 and 0.490"}, {"measurement": "Absorbance DCIP [600nm], complex II", "setting": "[2]; 870 s", "result": "0.469 and 0.453 and 0.489"}, {"measurement": "Absorbance DCIP [600nm], complex II", "setting": "[2]; 900 s", "result": "0.468 and 0.453 and 0.489"}]}
{"smiles": "Cn1c(NCc2cccc(Br)c2)nc2ccccc21", "note": "[Compound 7766492]", "values": [{"measurement": "Screen \"Hit\"", "setting": "[1]; [5]", "result": "Y (hits were identified as compounds that reduced relative motility below 0.25 (75% reduction))"}, {"measurement": "Relative Motility", "setting": "[1]; [6]", "result": 0.130}]}
{"smiles": "Nc1ccc(Oc2ccc(-c3nc4ccccc4[nH]3)cc2)cc1", "note": "[Compound 5747231]", "values": [{"measurement": "Screen \"Hit\"", "setting": "[1]; [5]", "result": "Y (hits were identified as compounds that reduced relative motility below 0.25 (75% reduction))"}, {"measurement": "Relative Motility", "setting": "[1]; [6]", "result": 0.130}]}
{"smiles": "Cc1ccc(C(C)C)cc1OCC(O)Cn1c(C)nc2ccccc21", "note": "(stereo not shown) [Compound 7748492]", "values": [{"measurement": "Screen \"Hit\"", "setting": "[1]; [5]", "result": "Y (hits were identified as compounds that reduced relative motility below 0.25 (75% reduction))"}, {"measurement": "Relative Motility", "setting": "[1]; [6]", "result": 0.220}]}
{"smiles": "Cc1ccc2[nH]c(-c3ccccc3N)nc2c1", "note": "[Compound 5534607]", "values": [{"measurement": "Hit", "setting": "[1]; active (hit) or inactive (non) at 50 μM in C. elegans assay of RQ-dependent metabolism", "result": "non"}]}
{"smiles": "COC(=O)c1ccc(OCC(O)Cn2c(C)nc3ccccc32)cc1", "note": "(stereo not shown) [Compound 5929389]", "values": [{"measurement": "Hit", "setting": "[1]; active or inactive at 50 μM in C. elegans assay of RQ-dependent metabolism", "result": "non"}]}
{"smiles": "CCCc1nc2ccccc2n1Cc1ccc(C)cc1", "note": "[Compound 6607958]", "values": [{"measurement": "Screen \"Hit\"", "setting": "[1]; [3]", "result": "Y (hits were identified as compounds that reduced relative motility below 0.25 (75% reduction))"}, {"measurement": "Relative Motility", "setting": "[1]; [4]", "result": 0.120}]}
{"smiles": "CCn1c(NCc2cccc(Br)c2)nc2ccccc21", "note": "[Compound 7746308]", "values": [{"measurement": "Screen \"Hit\"", "setting": "[1]; [5]", "result": "Y (hits were identified as compounds that reduced relative motility below 0.25 (75% reduction))"}, {"measurement": "Relative Motility", "setting": "[1]; [6]", "result": 0.200}]}
{"smiles": "Cc1nc2cc(Cl)ccc2n1-c1ccccc1", "note": "[Compound 5119819]", "values": [{"measurement": "Screen \"Hit\"", "setting": "[1]; [3]", "result": "Y (hits were identified as compounds that reduced relative motility below 0.25 (75% reduction))"}, {"measurement": "Relative Motility", "setting": "[1]; [4]", "result": 0.230}]}
